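These data come from cells grown in 96-well plates and exposed to compound for 48 hours at five concentrations. TGI denotes the concentration required for complete inhibition of growth.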
How the values were obtained:
Test in all cases: inhibition of tumour cell growth, NCI panel, 48 h
[1] = test system: 786-0 renal
[2] = test system: A498 renal
[3] = test system: A549 NSCLC
[4] = test system: ACHN renal
[5] = test system: CAKI-1 renal
[6] = test system: CCRF-CEM leukemia
[7] = test system: COLO 205 colon
[8] = test system: DU-145 prostate
[9] = test system: EKVX NSCLC
[10] = test system: HCC-2998 colon
[11] = test system: HCT-116 colon
[12] = test system: HCT-15 colon
[13] = test system: HL-60(TB) leukemia
[14] = test system: HOP-62 NSCLC
[15] = test system: HOP-92 NSCLC
[16] = test system: HS 578T breast
[17] = test system: HT29 colon
[18] = test system: IGROV1 ovarian
[19] = test system: K-562 leukemia
[20] = test system: KM12 colon
[21] = test system: LOX IMVI melanoma
[22] = test system: MALME-3M melanoma
[23] = test system: MDA-MB-231 breast
[24] = test system: MDA-MB-435
[25] = test system: MDA-N
[26] = test system: MOLT-4 leukemia
[27] = test system: NCI-H226 lung
[28] = test system: NCI-H23 lung
[29] = test system: NCI-H460 lung
[30] = test system: NCI-H522 lung
[31] = test system: NCI/ADR-RES ovarian
[32] = test system: OVCAR-4 ovarian
[33] = test system: OVCAR-5 ovarian
[34] = test system: OVCAR-8 ovarian
[35] = test system: PC-3 prostate
[36] = test system: RPMI-8226 leukemia
[37] = test system: RXF 393 renal
[38] = test system: SF-268 CNS
[39] = test system: SF-295 CNS
[40] = test system: SF-539 CNS
[41] = test system: SK-MEL-2 melanoma
[42] = test system: SK-MEL-28 melanoma
[43] = test system: SK-MEL-5 melanoma
[44] = test system: SK-OV-3 ovarian
[45] = test system: SN12C renal
[46] = test system: SNB-19 CNS
[47] = test system: SNB-75 CNS
[48] = test system: SR leukemia
[49] = test system: SW-620 colon
[50] = test system: T-47D breast
[51] = test system: TK-10 renal
[52] = test system: U251 CNS
[53] = test system: UACC-257 melanoma
[54] = test system: UACC-62 melanoma
[55] = test system: UO-31 renal

## COc1ccc(N2C(=O)C(=O)N(c3ccc(N=Nc4ccccc4)cc3)C2=S)cc1
[1]
  TGI: 35.5 µM
[2]
  TGI: 52.3 µM
[3]
  TGI: 41.2 µM
[4]
  TGI: 34.4 µM
[5]
  TGI: 47.2 µM
[6]
  TGI: > 100 µM
[7]
  TGI: 31.4 µM
[8]
  TGI: 34.3 µM
[9]
  TGI: 37 µM
[10]
  TGI: 30.1 µM
[11]
  TGI: 35.2 µM
[12]
  TGI: 32.4 µM
[13]
  TGI: > 100 µM
[14]
  TGI: 34.6 µM
[15]
  TGI: 31.7 µM
[16]
  TGI: > 100 µM
[17]
  TGI: 37.1 µM
[18]
  TGI: 31.3 µM
[19]
  TGI: > 100 µM
[20]
  TGI: 32.9 µM
[21]
  TGI: 37.2 µM
[22]
  TGI: 33.8 µM
[23]
  TGI: 41.5 µM
[24]
  TGI: 48.9 µM
[25]
  TGI: 40.3 µM
[26]
  TGI: > 100 µM
[27]
  TGI: 48.4 µM
[28]
  TGI: 34.9 µM
[29]
  TGI: 34.1 µM
[30]
  TGI: 20.2 µM
[31]
  TGI: 35.9 µM
[32]
  TGI: 37.7 µM
[33]
  TGI: 44.6 µM
[34]
  TGI: 35.6 µM
[35]
  TGI: 33.8 µM
[36]
  TGI: > 100 µM
[37]
  TGI: 32.4 µM
[38]
  TGI: 44.4 µM
[39]
  TGI: 35.4 µM
[40]
  TGI: 34.2 µM
[41]
  TGI: 35.1 µM
[42]
  TGI: 41.2 µM
[43]
  TGI: 30.4 µM
[44]
  TGI: 68.4 µM
[45]
  TGI: 33.2 µM
[46]
  TGI: 53.4 µM
[47]
  TGI: 55.5 µM
[48]
  TGI: > 100 µM
[49]
  TGI: 32.6 µM
[50]
  TGI: 45.1 µM
[51]
  TGI: 50.4 µM
[52]
  TGI: 32.6 µM
[53]
  TGI: 34.3 µM
[54]
  TGI: 31.6 µM
[55]
  TGI: 30.3 µM
